Assay results from patent US20030040510A1, “Selective estrogen receptor modulators in combination with estrogens” (Endorecherche, Inc., priority 2000, published 2003).
Like-named read-outs stand apart in the source and are kept apart here.

How the values were obtained:
[1] = test system: OVX rats having established osteopenia; experiment: Treatment of OVX rats having established osteopenia, 26 weeks (Example 5B): BMD, total body fat; format: in vivo, Sprague-Dawley rats; conditions: treatment started 10 weeks after OVX, 26 weeks daily
Experimental: Height to nine month-old female Sprague-Dawley rats (Crl:CD(SD)Br) (Charles River Laboratory, St-Constant, Canada) were used in this experiment. The animals were acclimatized to the environmental conditions (temperature: 22±3° C.; humidity: 50±20%; 12-h light-12-h dark cycles, lights on at 07:15 h) for at least 1 week prior to the ovariectomy. Animals were bilaterally ovariectomized (OVX) under isoflurane anesthesia. Twenty animals were kept intact as control. The animals were housed individually and were allowed free access to tap water and a pelleted certified rodent feed (Lab Diet 5002, Ralston Purina, St-Louis, Mo.). Experiments were conducted in an animal facility approved by the Canadian Council on Animal Care (CCAC) and the Association for Assessment and Accreditation of Laboratory Animal Care (AAALAC) in accordance with the CCAC Guide for Care and Use of Experimental Animals.
Treatments were initiated 10 weeks after the ovariectomy and were performed once daily during 26 weeks. Animals not receiving a test article were treated with the appropriate vehicle alone during the same period.
Prior to the OVX, prior to the first day treatment (10 weeks after OVX) and after 26 weeks of treatment, individual rats under Isoflurane anesthesia had their whole body skeleton, lumbar spine and right femur scanned using dual energy x-ray absorptiometry (DEXA; QDR 4500A, Hologic, Waltham, Mass.) and a Regional High Resolution Scan software. The bone mineral density (BMD) of the lumbar spine (vertebrae L2 to L4), femur and the total body composition (fat percentage) were determined.

MCF-7 cells = experiment: Proliferation of human breast cancer MCF-7 cells (DNA content); format: cell-based; conditions: for IC50: Homo sapiens, read-out: Inhibition of 1nM E2 stimulation of DNA by tested compounds IC50
Experimental: The MCF-7 human breast adenocarcinoma cell line was derived from the pleural effusion of a patient. MCF-7 cells were used between passages 148 and 165 and subcultured weekly
Cells in their late logarithmic growth phase were harvested with 0.1% pancreatin (Sigma) and resuspended in the appropriate medium containing 50 ng bovine insulin/ml and 5% (v/v) FBS treated twice with dextran-coated charcoal to remove endogenous steroids. Cells were plated in 24-well Falcon plastic culture plates (2 cm^2/well) at the indicated density and allowed to adhere to the surface of the plates for 72 h. Thereafter, medium was replaced with fresh medium containing the indicated concentrations of compounds diluted from 1000×stock solutions in 99% redistilled ethanol in the presence or absence of E2. Control cells received only the ethanolic vehicle (0.1% EtOH,v/v). Cells were incubated for the specified time intervals with medium changes at 2-or 3-day intervals. Cell number was determined by measurement of DNA content.
Dose-response curves as well IC50 values were calculated using a weighted iterative nonlinear least-squares regression. All results are expressed as means±SEM.

ZR-75-1 breast tumors = experiment: Growth and response category of human ZR-75-1 breast tumors in OVX nude mice, 7 antiestrogens, 161 days (Example 8); format: in vivo
Experimental: The mice (5 per cage) were housed in vinyl cages equipped with air filter lids, which were kept in laminar airflow hoods and maintained under pathogen-limiting conditions. The photoperiod was 12 hours of light and 12 hours of darkness (lights on at 07:15). Cages, bedding and food (Agway Pro-Lab R-M-H Diet #4018) were autoclaved before use. Water was autoclaved and provided ad libitum. Bilateral ovariectomy was performed under isoflurane-induced anesthesia. […] Randomization and treatments were started one week later. […] The 17 groups included two control groups (OVX and OVX+Estrone), seven groups supplemented with an estrone implant and treated with an antiestrogen and eight other groups that received an antiestrogen alone. The estrone implants were then removed from the animals in the ovariectomized control group (OVX) and in groups that were to receive the antiestrogen alone. […] Tamoxifen was purchased from […], Israel) while toremifene citrate was purchased from Orion (Espoo, Finland). […] Animals in both control groups received 0.2 ml of the vehicle alone. The antiestrogen suspensions at the appropriate concentration were prepared each month, stored at 4° C. and used under constant agitation. Powder stock were hermetically stored at 4° C. […] Tumor response was assessed at the end of the study or at death of each animal, if it occurred during the course of the experiment. In this case, only data of mice that survived for at least half of the study (84 days) were used in the tumor response analysis.

[2] = test system: breast and endometrial tissues; experiment: Antiestrogens tested for SERM function and estrogenic activity in breast and endometrium
[3] = 50 μg daily + estrone, 161 days

## CC1=C(c2ccc(O)cc2)[C@H](c2ccc(OCCN3CCCCC3)cc2)Oc2cc(O)ccc21.Cl [EM-652.HCl, (S)-(+)-7-hydroxy-3-(4′-hydroxyphenyl)-4-methyl-2-(4″-(2′″-piperidinoethoxy)phenyl)-2H-1-benzopyran hydrochloride]
[1]
  Femoral BMD: completely prevented the further decrease
  Lumbar spine BMD: completely prevented the further decrease
  Total body fat: prevented the 17% increase
MCF-7 cells; MCF7, MCF-7, Experiment 2
  IC50: 0.205 nM
MCF-7 cells; MCF7, MCF-7, Experiment 1
  IC50: 0.796 nM
MCF-7 cells; MCF-7, Experiment 1
  Maximal stimulation of DNA by tested compounds: N.S.
MCF-7 cells; MCF-7, Experiment 2
  Stimulation of DNA by tested compounds: N.S.
ZR-75-1 breast tumors; [3]
  Complete response, of tumors: 17%
  Partial response, of tumors: 17%
  Progressing tumors: 7%
  Stable response, of tumors: 60%
ZR-75-1 breast tumors; 50 μg daily oral + estrone, 23 weeks
  Effect on estrone-stimulated tumor growth: completely prevented tumor growth
ZR-75-1 breast tumors; 200 μg daily alone, absence of estrone, 161 days
  Change of ZR-75-1 tumor size compared to the OVX control group: did not significantly change
[2]
  Function as SERM: found to function as SERMs
[2]; physiological or pharmacological concentrations
  Estrogenic activity in breast and endometrial tissues: do not have any estrogenic activity
